Measurements: patent US10130616B2, “Securinine and norsecurinine analogue compounds for the treatment of myeloid disorders” (Case Western Reserve University, priority 2013, dated 2018)
Read-outs that look alike come from different tables or passages of the source.

Experiments:
HL-60 leukemic cells = assay: Nitroblue Tetrazolium (NBT) reduction assay, differentiation of HL-60 leukemic cells; type: cell-based, human
Source text: In an aspect of the present disclosure, the compounds of the disclosure can be identified using a novel high-throughput screen that is biased to identify agents that have both a high potency and low toxicity in a myeloid disorder disease model, such as an animal or cell model. In some embodiments, the high-throughput screen measures the differentiation of HL-60 leukemic cells using a quantitative nitroblue tetrazolium (NBT) reduction assay. Screening HL-60 cells, human promyelocytic cells, is advantageous as they have been used extensively as a cell line to study myeloid differentiation. Though promyelocytic cells, HL-60 cells were derived from a patient with acute myeloblastic leukemia with maturation, FAB-M2.
This technique has also been widely exploited in HL-60 cells to analyze myelomonocytic differentiation.
The NBT screen works due to changes in the oxidoreductases during differentiation that lead to increases in rates of NBT reduction. NBT is reduced due to the production of superoxide that is catalyzed by an NADPH oxidase. […] NBT is reduced by superoxide from a soluble yellow compound to insoluble blue formazan granules whose formation can be monitored spectrophotometrically at 560 nm as the unreduced dye has minimal absorbance at this wavelength. A quantitative NBT reduction assay is ideal for this type of screen as it is simple, sensitive, quantitative, requires minimal cells, has been proven to have low well to well variability, and the amount of reduced NBT is proportional to the number of cells reducing the dye as well as the amount reduced by each cell.
To discover novel AML differentiation-inducing compounds a rapid high-throughput screen (HTS) was developed and optimized. The screen was designed to be biased to identify compounds that, unlike the majority of known differentiation-inducing agents, have both high potency and low toxicity. The screen measured the differentiation of HL-60 leukemic cells using a quantitative Nitroblue Tetrazolium (NBT) reduction assay, a test that is used extensively as a measure of functional myelomonocytic differentiation. The basis for the screen is unreduced NBT exists as a yellow soluble dye. Differentiated leukemic cells are capable of producing a respiratory burst that can reduce NBT into a blue insoluble compound that can be measured spectrophotometrically. This forward chemical genetics approach allowed the discovery of novel compounds that can act on targets not previously known to be “drugable.” As only live cells can reduce NBT, the screen is biased in identifying relatively nontoxic compounds.
To perform the screen, duplicate plates of HL-60 cells were cultured at a density of 5×10^4 cells/mL with 10 μM of each compound in 96 well plates for 5 days. To determine the relative capability for a compound to induce differentiation compared to known potent inducers, each plate destined for the NBT reduction assay included wells with 0.1% DMSO (vehicle control) and 1 μM ATRA. This approach eliminates any slight day to day variation in NBT reduction values and allows the discovery of compounds with similar or greater efficacy to ATRA. Differentiation was determined in the 96 well plates by incubating the cells with 1 mg/mL of NBT and 200 ng/mL of PMA as the stimulant for the respiratory burst for 35 minutes at 37° C. The reaction was then stopped with HCl and the formazan solubilized with DMSO. Finally, the reaction mixture was read spectrophotometrically at 560 nm in a plate reader.
The securinine and norsecurinine analogues were tested and evaluated on their abilities to affect differentiation and growth of HL-60 cells (Table 1).

HL-60 cells = assay: Growth of HL-60 cells (IC50); type: cell-based, human; details: for IC50: Homo sapiens, HL-60, HL-60 cells, value bracketed between tested concentrations, read-out: HL-60, IC50
[1] = Homo sapiens, HL-60 cells, value bracketed between tested concentrations, read-out: HL-60, Dif50
[2] = HL-60 cells, value bracketed between tested concentrations, read-out: HL-60, Dif50

Structure (SMILES)	EC50 (HL-60 leukemic cells; [1])	IC50 (HL-60 cells)	further results
O=C(CCCC[C@@H]1SC[C@@H]2NC(=O)N[C@@H]21)NCCS[C@H]1CC2=CC(=O)O[C@@]23C[C@@H]1N1CCCC[C@@H]13 [Compound 78]	10 to 15 µM	–	–
O=C1C=C2CC(SCC(F)(F)F)[C@@H]3C[C@@]2(O1)[C@H]1CCCCN31 (stereo partly drawn) [Compound 67]	20 to 30 µM	–	–
NCCSC1CC2=CC(=O)O[C@@]23C[C@@H]1N1CCCC[C@@H]13 (stereo partly drawn) [Compound 77]	10 to 15 µM	–	–
CC(C)(C)C#CC1=C[C@@H]2C[C@@]3(OC(=O)C=C13)[C@H]1CCCCN21 [Compound 23]	–	1.25 to 2.5 µM	–
CCCCC#CC1=C[C@@H]2C[C@@]3(OC(=O)C=C13)[C@H]1CCCCN21 [Compound 20]	–	2.5 µM	–
CCc1ccc(C#CC2=C[C@@H]3C[C@@]4(OC(=O)C=C24)[C@H]2CCCCN32)cc1 [Compound 49]	–	0.31 to 0.625 µM	–
CC(C)NCCSC1CC2=CC(=O)O[C@@]23C[C@@H]1N1CCCC[C@@H]13 (stereo partly drawn) [Compound 100]	15 to 20 µM	–	–
CC(C)CC#CC1=C[C@@H]2C[C@@]3(OC(=O)C=C13)[C@H]1CCCCN21 [Compound 16]	–	1.25 to 2.5 µM	–
O=C1C=C2CC(NCC3CC3)[C@@H]3C[C@@]2(O1)[C@H]1CCCCN31 (stereo partly drawn) [Compound 79]	10 to 15 µM	–	–
O=C1C=C2C(C#CCOCc3ccccc3)=C[C@@H]3C[C@@]2(O1)[C@H]1CCCCN31 [Compound 34]	–	1.25 to 2.5 µM	–
C[N+]12CCCC[C@@H]1[C@]13C[C@H]2C=CC1=CC(=O)O3 (stereo partly drawn) [Compound 8]	> 30 µM	–	–
O=C1C=C2C(c3cc(C(F)(F)F)cc(C(F)(F)F)c3)=C[C@@H]3C[C@@]2(O1)[C@H]1CCCCN31 [Compound 6]	–	15 to 20 µM	–
COc1ccc(CN[C@@H]2CC3=CC(=O)O[C@@]34C[C@@H]2N2CCCC[C@@H]24)cc1 [INVS-MG-86C]	–	–	EC50 (HL-60 leukemic cells; [2]): > 30 µM
O=C1C=C2C(C#Cc3cc(F)cc(F)c3)=C[C@@H]3C[C@@]2(O1)[C@H]1CCCCN31 [Compound 37]	–	5 to 10 µM	–
CSC1CC2=CC(=O)O[C@@]23C[C@@H]1N1CCCC[C@@H]13 (stereo partly drawn) [Compound 96]	–	–	EC50 (HL-60 leukemic cells; Homo sapiens, HL-60, read-out: HL-60, Dif50): 10 to 15 µM
O=C1C=C2C(C#CC3CCCC3)=C[C@@H]3C[C@@]2(O1)[C@H]1CCCCN31 [Compound 19]	–	0.31 to 0.625 µM	–
CCCCc1ccc(C#CC2=C[C@@H]3C[C@@]4(OC(=O)C=C24)[C@H]2CCCCN32)cc1 [Compound 50]	–	0.625 to 1.25 µM	–
CCOC(C#CC1=C[C@@H]2C[C@@]3(OC(=O)C=C13)[C@H]1CCCCN21)OCC [Compound 44]	–	2.5 to 5 µM	–
COC(OC)[C@H]1CC[C@H]2N1[C@@H]1C=C(I)C3=CC(=O)O[C@@]32C1 [Compound 1]	–	–	100% Death (HL-60 cells; HL-60 cells, concentration giving 100% death): 100% Death <2.5
CC(C)(C)OC(=O)NCCSC1CC2=CC(=O)O[C@@]23C[C@@H]1N1CCCC[C@@H]13 (stereo partly drawn) [Compound 95]	15 to 20 µM	–	–
O=C1C=C2C(c3cc(Br)cc(Br)c3)=C[C@@H]3C[C@@]2(O1)[C@H]1CCCCN31 [Compound 7]	–	15 to 20 µM	–
CC(C)(C)c1ccc(C#CC2=C[C@@H]3C[C@@]4(OC(=O)C=C24)[C@H]2CCCCN32)cc1 [Compound 32]	–	1.25 µM	–
O=C1C=C2C[C@H](SCC(F)(F)F)[C@@H]3C[C@@]2(O1)[C@H]1CCCCN31 [INVS-MG-5B]	–	–	EC50 (HL-60 leukemic cells; [2]): > 30 µM
O=C1C=C2CC(SC34CC5CC(CC(C5)C3)C4)[C@@H]3C[C@@]2(O1)[C@H]1CCCCN31 (stereo partly drawn) [Compound 66]	> 30 µM	–	–
O=C1C=C2CC(n3cnc4ccccc43)[C@@H]3C[C@@]2(O1)[C@H]1CCCCN31 (stereo partly drawn) [Compound 91]	> 30 µM	–	–
CCCCSC1CC2=CC(=O)O[C@@]23C[C@@H]1N1CCCC[C@@H]13 (stereo partly drawn) [Compound 72]	20 to 30 µM	–	–
[N-]=[N+]=Nc1ccc(C#CC2=C[C@@H]3C[C@@]4(OC(=O)C=C24)[C@H]2CCCCN32)cc1 [Compound 54]	–	0.31 µM	–
O=C1C=C2CC(N3CCC(F)(F)C3)[C@@H]3C[C@@]2(O1)[C@H]1CCCCN31 (stereo partly drawn) [Compound 68]	> 30 µM	–	–
CC(C)SC1CC2=CC(=O)O[C@@]23C[C@@H]1N1CCCC[C@@H]13 (stereo partly drawn) [Compound 75]	15 to 20 µM	–	–
O=C1C=C2C(C#CCOc3ccccc3)=C[C@@H]3C[C@@]2(O1)[C@H]1CCCCN31 [Compound 33]	–	0.625 to 1.25 µM	–
